Experimental findings from US11780868B1, “Homoleptic metal coordination complexes as antifungal agents” (King Abdulaziz University, priority 2023, dated 2023) are described below.

Common to all, as to type: cell-based, Candida albicans
One test concerns C. albicans 4085. The test can be described thus: Broth microdilution MIC/MFC (CLSI M27-A4). The settings on record: C. albicans 4085 (Flz resistant). The procedure: (§1) In this work, nine strains of C. albicans procured from Charlotte Maxeke Johannesburg Academic Hospital under ethical clearance number M000402 were employed (Table 1). All the C. albicans strains were preserved at −70° C. deep freezer in 50% (v/v) anhydrous glycerol (Sigma-Aldrich St. Louis, MO, U.S.A.). For conducting experiments, cultures were revived in Sabouraud Dextrose broth (SDB; Merck, Germany) at 37° C. and 120 rpm for 24 h. Additionally, the RPMI 1640 medium and MOPS (Sigma-Aldrich, USA) were prepared as described by the Clinical and Laboratory Standards Institute (CLSI).
(§2) The activity of C1 against Candida species (n=9) was first estimated in terms of minimum inhibitory concentration (MIC) and minimum fungicidal concentration (MFC). […] Briefly, stock solutions of Flz (used as reference; Sigma-Aldrich St. Louis, MO, U.S.A.) and the synthesized compound was prepared in 1% dimethyl sulfoxide (DMSO; Sigma-Aldrich St. Louis, MO, U.S.A.) and the test concentrations were formulated in RPMI 1640-MOPS medium. A two-fold dilution of the compound (1250-0.61 μg/mL) and reference drug (128-0.062 μg/mL) was prepared in 96 well plates which were then seeded with C. albicans inoculum (1×10^6 cells/mL) and incubated at 37° C. for 24 h. In every set of experiments, sterility control, 1% DMSO as negative control and growth control were included. Growth was quantified by reading the optical density at 620 nm in a UV-1800 SHIMADZU spectrophotometer (Shimadzu Corporation, Japan). The MIC was determined as the lowest concentration that inhibited the growth of Candida strains. To determine MFC, each well without visible growth was subcultured onto the SDA plates for 24 hours at 37° C. The lowest concentration killing ≥99.9% of Candida was taken as the MFC value of the test compound.

In another test the test system is C. albicans 4106. Kind of test: Broth microdilution MIC/MFC (CLSI M27-A4). The settings on record: C. albicans 4106 (Flz resistant). As to the method: as §1, §2
Another test has as its system C. albicans 4175. The test can be described thus: Broth microdilution MIC/MFC (CLSI M27-A4). The note with it: C. albicans 4175 (Flz sensitive). The procedure: as §1, §2
A further test has as its system C. albicans 4180. The test can be described thus: Broth microdilution MIC/MFC (CLSI M27-A4). The note with it: C. albicans 4180 (Flz sensitive). As to the method:
as §1, §2

The test system of test [1] is C. albicans 4251. The test can be described thus: Broth microdilution MIC/MFC (CLSI M27-A4). The note with it: C. albicans 4251 (Flz sensitive). As to the method:
as §1, §2

Another test relates to C. albicans 4324. Kind of test: Broth microdilution MIC/MFC (CLSI M27-A4). The note with it: C. albicans 4324 (Flz resistant). As to the method: as §1, §2
The next test has as its system C. albicans 4554. The test can be described thus: Broth microdilution MIC/MFC (CLSI M27-A4). The note with it: C. albicans 4554 (Flz sensitive). The procedure: as §1, §2
Test [2] relates to C. albicans 5112. Kind of test: Broth microdilution MIC/MFC (CLSI M27-A4). The note with it: C. albicans 5112 (Flz resistant). The procedure: as §1, §2
The subject of a further test is C. albicans SC5314. Kind of test: Broth microdilution MIC/MFC (CLSI M27-A4). The note with it: C. albicans SC5314 (control). The procedure:
as §1, §2

In test [3] the test system is C. albicans 4251. The test can be described thus: JC-10 mitochondrial membrane potential assay. The settings on record: 4 h, negative control 2.65. The procedure:
(§3) To examine the effect of C1 on the induction of cellular apoptosis in C. albicans cells, crucial apoptotic markers were observed. For this purpose, C. albicans 4251 and C. albicans 5112 cells were subjected to protoplast preparation by utilizing a method described previously by Srivastava et al. in 2020 through their research study. […] Later on, the cells were washed and incubated for 10 min at room temperature in protoplast buffer-1 (1M sorbitol, 0.05M tris base, 0.01M MgCl2, 0.03M DTT, pH 7.4). The cells were spun at 1500 rpm for 5 min and the pellet was resuspended in protoplast buffer-2 (1M sorbitol, 0.05M tris base, 0.01M MgCl2, 0.001M DTT, pH 7.4) supplemented with […] enzyme (1 μg/mL) and incubated for 1 h at room temperature. Afterwards, the cell suspension was again centrifuged, and the pellet was resuspended and incubated for 20 min at room temperature in protoplast buffer-3 (1M sorbitol, 0.05M tris base, 0.01M MgCl2, pH 7.4). A final washing (1500 rpm for 5 min) was given to the cells and the pellet consisting of C. albicans protoplasts was resuspended in fresh PBS and was stored at 4° C. until further use. Measurement of mitochondrial membrane potential in C. albicans was carried out and the potential of C1 in destabilising mitochondrial membrane potential (Δψm) in C. albicans was established by JC-10 mitochondrial membrane potential assay kit (Abeam, Cambridge, UK). The experiment was performed according to manufacturer instructions. 90 μL of prepared protoplast of C. albicans 4251 and C. albicans 5112 was added to a 96-well microplate (with black walls and clear bottom), followed by the addition of 50 μL/well of JC-10 dye-loading solution. The microplate was incubated for 1 hour at 37° C. in the dark. This was followed by the addition of 50 μL/well of assay buffer B. The microplate was then immediately centrifuged at 800 rpm for 2 minutes. The fluorescence intensity was monitored at an Ex/Em=490/530 nm (present in apoptotic cells, monomeric form and green fluorescence; represented as X) and 540/590 nm (present in live cells, dye aggregates and red fluorescence; represented as Y) using a SpectraMax® ID3 Multimode Plate Reader (Molecular Devices, LLC., USA). The ratio between the aggregate and monomeric forms was measured to find the change in mitochondrial membrane potential. The mitochondrial membrane depolarization is indicated by decreasing ratio values.

In test [4] the test system is C. albicans 5112. Kind of test: JC-10 mitochondrial membrane potential assay. The settings on record: 4 h, negative control 2.92. The procedure:
as §3

Take `Brc1ccc([O][Co][O]c2ccc(Br)cc2C=Nc2ccc3c(c2)OCCO3)c(C=Nc2ccc3c(c2)OCCO3)c1` [Complex C1, [Co(L)2]]: the “Median MIC” value with C. albicans 4085 (37° C., 24 h) is 9.76 µg/mL; in the test with C. albicans 4106 (37° C., 24 h) it was 9.76 µg/mL; in the test with C. albicans 4175 (37° C., 24 h) it was 1.22 µg/mL; in the test with C. albicans 4180 (37° C., 24 h), 2.44 µg/mL; in the test with C. albicans 4251 [1] (37° C., 24 h) it was 4.88 µg/mL; in the test with C. albicans 4324 (37° C., 24 h) it was 9.76 µg/mL. Further, the “Median MIC” value in the test on C. albicans 4554 (37° C., 24 h) turned out to be 2.44 µg/mL; in the test on C. albicans 5112 [2] (37° C., 24 h) it was 19.53 µg/mL; in the test with C. albicans SC5314 (37° C., 24 h), 2.44 µg/mL. Moreover, the “Median MFC” value in the test on C. albicans 4085 (killing ≥99.9%) turned out to be 19.53 µg/mL; in the test on C. albicans 4106 (killing ≥99.9%), 19.53 µg/mL; with C. albicans 4175 (killing ≥99.9%), 2.44 µg/mL; with C. albicans 4180 (killing ≥99.9%), 4.88 µg/mL; in the test with C. albicans 4251 [1] (killing ≥99.9%) it was 9.76 µg/mL; with C. albicans 4324 (killing ≥99.9%), 19.53 µg/mL. Moreover, the “Median MFC” value in the test on C. albicans 4554 (killing ≥99.9%) came to 4.88 µg/mL; in the test with C. albicans 5112 [2] (killing ≥99.9%), 78.12 µg/mL; in the test with C. albicans SC5314 (killing ≥99.9%), 4.88 µg/mL. The “average fluorescence ratio JC-10 aggregates/JC-10 monomers” value in the test on C. albicans 4251 [3] (C. albicans 4251, 0.5×MIC) was 2.04; in the test with C. albicans 4251 [3] (C. albicans 4251, 1×MIC), 1.6; in the test on C. albicans 5112 [4] (C. albicans 5112, 0.5×MIC), 2.24; in the test with C. albicans 5112 [4] (C. albicans 5112, 1×MIC), 1.71.
